Assay: Phase 1 hepatic impairment study, safety (TEAEs) after single oral 20 mg tablet
[1] = mild hepatic impairment (N = 8)
[2] = moderate hepatic impairment (N = 8)
[3] = normal hepatic function (N = 14)

Protocol: The secondary objective of the study was to assess the safety and tolerability of a single dose of paltusotine in subjects with varying degrees of hepatic impairment.
Safety and tolerability were assessed by the following endpoints: reported adverse events (AEs), clinical laboratory test results (hematology, coagulation, serum chemistry, and urinalysis), vital sign measurements, and 12-lead electrocardiogram results
All 36 subjects who were enrolled in the study received all planned single doses of paltusotine 20 mg (1×20 mg tablet) and were included in the safety and PK analysis populations.

N#Cc1cccc(-c2ccc3ncc(-c4cc(F)cc(F)c4)c(N4CCC(N)CC4)c3c2)c1O [paltusotine, 3-[4-(4-amino-1-piperidyl)-3-(3,5-difluorophenyl)-6-quinolyl]-2-hydroxybenzonitrile]
discontinuation due to a TEAE (all 36 subjects): No subjects discontinued | safety and tolerability (hepatic impairment and normal subjects): safe and generally well tolerated | Any SAEs, number of occurrences [1]: 1 | Any TEAE, number of occurrences [1]: 3 | Related TEAE Abdominal discomfort, subjects n (%) [1]: 0 | Related TEAE Diarrhea, number of occurrences [1]: 1 | Related TEAE Diarrhea, subjects n (%) [1]: 1 (12.5%) | Related TEAE Epigastric discomfort, subjects n (%) [1]: 0 | Related TEAE Fatigue, subjects n (%) [1]: 0 | Related TEAE Haematuria, number of occurrences [1]: 1 | Related TEAE Haematuria, subjects n (%) [1]: 1 (12.5%) | Related TEAE Headache, subjects n (%) [1]: 0 | Related TEAE Neutropenia, subjects n (%) [1]: 0 | Related TEAE Pain, subjects n (%) [1]: 0 | Related TEAE Paraesthesia, subjects n (%) [1]: 0 | SAEs Not related to study drug (strongest relationship), subjects n (%) [1]: 1 (12.5%) | SAEs Not related to study drug, number of occurrences [1]: 1 | SAEs Related to study drug (strongest relationship), subjects [1]: 0 | Subjects reporting any SAEs, subjects n (%) [1]: 1 (12.5%) | Subjects reporting any TEAE, subjects n (%) [1]: 2 (25.0%) | TEAE Abdominal discomfort, subjects n (%) [1]: 0 | TEAE COVID-19, subjects n (%) [1]: 0 | TEAE Death, number of occurrences [1]: 1 | TEAE Diarrhea, number of occurrences [1]: 1 | TEAE Diarrhea, subjects n (%) [1]: 1 (12.5%) | TEAE Epigastric discomfort, subjects n (%) [1]: 0 | TEAE Fatigue, subjects n (%) [1]: 0 | TEAE Haematuria, number of occurrences [1]: 1 | TEAE Haematuria, subjects n (%) [1]: 1 (12.5%) | TEAE Headache, subjects n (%) [1]: 0 | TEAE Neutropenia, subjects n (%) [1]: 0 | TEAE Pain, subjects n (%) [1]: 0 | TEAE Paraesthesia, subjects n (%) [1]: 0 | TEAE SOC Blood and lymphatic system disorders, subjects n (%) [1]: 0 | TEAE SOC Gastrointestinal disorders, number of occurrences [1]: 1 | TEAE SOC Gastrointestinal disorders, subjects n (%) [1]: 1 (12.5%) | TEAE SOC General disorders and administration site conditions, number of occurrences [1]: 1 | TEAE SOC General disorders and administration site conditions, subjects n (%) [1]: 1 (12.5%) | TEAE SOC Infections and infestations, subjects n (%) [1]: 0 | TEAE SOC Nervous system disorders, subjects n (%) [1]: 0 | TEAE SOC Renal and urinary disorders, number of occurrences [1]: 1 | TEAE SOC Renal and urinary disorders, subjects n (%) [1]: 1 (12.5%) | TEAEs Not Related to study drug (strongest relationship), subjects n (%) [1]: 0 | TEAEs Related to study drug (strongest relationship), subjects n (%) [1]: 2 (25.0%) | TEAEs Related to study drug, number of occurrences [1]: 2 | TEAEs by maximum severity: Mild, number of occurrences [1]: 2 | TEAEs by maximum severity: Mild, subjects n (%) [1]: 1 (12.5%) | TEAEs by maximum severity: Moderate, subjects n (%) [1]: 0 | TEAEs by maximum severity: Severe, number of occurrences [1]: 1 | TEAEs by maximum severity: Severe, subjects n (%) [1]: 1 (12.5%) | Total number of SAEs reported [1]: 1 | Total number of TEAEs reported [1]: 3 | Any TEAE, number of occurrences [2]: 4 | Related TEAE Abdominal discomfort, subjects n (%) [2]: 0 | Related TEAE Diarrhea, number of occurrences [2]: 1 | Related TEAE Diarrhea, subjects n (%) [2]: 1 (12.5%) | Related TEAE Epigastric discomfort, subjects n (%) [2]: 0 | Related TEAE Fatigue, number of occurrences [2]: 1 | Related TEAE Fatigue, subjects n (%) [2]: 1 (12.5%) | Related TEAE Haematuria, subjects n (%) [2]: 0 | Related TEAE Headache, number of occurrences [2]: 1 | Related TEAE Headache, subjects n (%) [2]: 1 (12.5%) | Related TEAE Neutropenia, subjects n (%) [2]: 0 | Related TEAE Pain, number of occurrences [2]: 1 | Related TEAE Pain, subjects n (%) [2]: 1 (12.5%) | Related TEAE Paraesthesia, subjects n (%) [2]: 0 | SAEs Not related to study drug (strongest relationship), subjects n (%) [2]: 0 | SAEs Related to study drug (strongest relationship), subjects [2]: 0 | Subjects reporting any SAEs, subjects n (%) [2]: 0 | Subjects reporting any TEAE, subjects n (%) [2]: 2 (25.0%) | TEAE Abdominal discomfort, subjects n (%) [2]: 0 | TEAE COVID-19, subjects n (%) [2]: 0 | TEAE Death, subjects n (%) [2]: 0 | TEAE Diarrhea, number of occurrences [2]: 1 | TEAE Diarrhea, subjects n (%) [2]: 1 (12.5%) | TEAE Epigastric discomfort, subjects n (%) [2]: 0 | TEAE Fatigue, number of occurrences [2]: 1 | TEAE Fatigue, subjects n (%) [2]: 1 (12.5%) | TEAE Haematuria, subjects n (%) [2]: 0 | TEAE Headache, number of occurrences [2]: 1 | TEAE Headache, subjects n (%) [2]: 1 (12.5%) | TEAE Neutropenia, subjects n (%) [2]: 0 | TEAE Pain, number of occurrences [2]: 1 | TEAE Pain, subjects n (%) [2]: 1 (12.5%) | TEAE Paraesthesia, subjects n (%) [2]: 0 | TEAE SOC Blood and lymphatic system disorders, subjects n (%) [2]: 0 | TEAE SOC Gastrointestinal disorders, number of occurrences [2]: 1 | TEAE SOC Gastrointestinal disorders, subjects n (%) [2]: 1 (12.5%) | TEAE SOC General disorders and administration site conditions, number of occurrences [2]: 2 | TEAE SOC General disorders and administration site conditions, subjects n (%) [2]: 1 (12.5%) | TEAE SOC Infections and infestations, subjects n (%) [2]: 0 | TEAE SOC Nervous system disorders, number of occurrences [2]: 1 | TEAE SOC Nervous system disorders, subjects n (%) [2]: 1 (12.5%) | TEAE SOC Renal and urinary disorders, subjects n (%) [2]: 0 | TEAEs Not Related to study drug (strongest relationship), subjects n (%) [2]: 0 | TEAEs Related to study drug (strongest relationship), subjects n (%) [2]: 2 (25.0%) | TEAEs Related to study drug, number of occurrences [2]: 4 | TEAEs by maximum severity: Mild, number of occurrences [2]: 3 | TEAEs by maximum severity: Mild, subjects n (%) [2]: 1 (12.5%) | TEAEs by maximum severity: Moderate, number of occurrences [2]: 1 | TEAEs by maximum severity: Moderate, subjects n (%) [2]: 1 (12.5%) | TEAEs by maximum severity: Severe, subjects n (%) [2]: 0 | Total number of SAEs reported [2]: 0 | Total number of TEAEs reported [2]: 4 | Any TEAE, number of occurrences [3]: 6 | Related TEAE Abdominal discomfort, number of occurrences [3]: 1 | Related TEAE Abdominal discomfort, subjects n (%) [3]: 1 (7.1%) | Related TEAE Diarrhea, number of occurrences [3]: 2 | Related TEAE Diarrhea, subjects n (%) [3]: 2 (14.3%) | Related TEAE Epigastric discomfort, number of occurrences [3]: 1 | Related TEAE Epigastric discomfort, subjects n (%) [3]: 1 (7.1%) | Related TEAE Fatigue, subjects n (%) [3]: 0 | Related TEAE Haematuria, subjects n (%) [3]: 0 | Related TEAE Headache, subjects n (%) [3]: 0 | Related TEAE Neutropenia, subjects n (%) [3]: 0 | Related TEAE Pain, subjects n (%) [3]: 0 | Related TEAE Paraesthesia, number of occurrences [3]: 1 | Related TEAE Paraesthesia, subjects n (%) [3]: 1 (7.1%) | SAEs Not related to study drug (strongest relationship), subjects n (%) [3]: 0 | SAEs Related to study drug (strongest relationship), subjects [3]: 0 | Subjects reporting any SAEs, subjects n (%) [3]: 0 | Subjects reporting any TEAE, subjects n (%) [3]: 4 (28.6%) | TEAE Abdominal discomfort, number of occurrences [3]: 1 | TEAE Abdominal discomfort, subjects n (%) [3]: 1 (7.1%) | TEAE COVID-19, subjects n (%) [3]: 0 | TEAE Death, subjects n (%) [3]: 0 | TEAE Diarrhea, number of occurrences [3]: 3 | TEAE Diarrhea, subjects n (%) [3]: 3 (21.4%) | TEAE Epigastric discomfort, number of occurrences [3]: 1 | TEAE Epigastric discomfort, subjects n (%) [3]: 1 (7.1%) | TEAE Fatigue, subjects n (%) [3]: 0 | TEAE Haematuria, subjects n (%) [3]: 0 | TEAE Headache, subjects n (%) [3]: 0 | TEAE Neutropenia, subjects n (%) [3]: 0 | TEAE Pain, subjects n (%) [3]: 0 | TEAE Paraesthesia, number of occurrences [3]: 1 | TEAE Paraesthesia, subjects n (%) [3]: 1 (7.1%) | TEAE SOC Blood and lymphatic system disorders, subjects n (%) [3]: 0

Source: patent US12208092B2, “Compositions and methods for administering paltusotine to patients with hepatic impairment” (CRINETICS PHARMACEUTICALS, INC., priority 2023, dated 2025)
